Converted amounts (≈) assume the structure as drawn.
What was measured:
[1] = tested on: Enterococcus faecalis ATCC 29212; assay: In-vitro MIC test (agar dilution), E. faecalis; format: cell-based; details: ATCC29212, Mueller Hinton agar, 24 hrs at 35° C., read-out: Minimum Inhibitory Concentrations (MIC) E. faecalis
Excerpt: (§1) The test methods used for verifying the antimicrobial action of compound within the scope of this invention are essentially the same as those described in PCT WO 95/25106, U.S. Pat. No. 5,668,286 and EP 0 750, 618 B1, with the difference that the strains of the organisms used for the MIC determinations in these patents and applications are Staphylococcus aureus ATCC 25923, Staphylococcus epidermidis ATCC 12828, Streptococcus pyogenes ATCC 19615.
(§2) The in-vitro MIC methods of test compounds were determined essentially as described in PCT WO 95/25106, U.S. Pat. No. 5,668,286 and EP 0 750 618 B1.
(§3) Overnight grown cultures of S. aureus organisms in Tryptic Soya broth were diluted in Mueller Hinton Broth to give optical density matching with MacFarland tube 0.5 standard. Cultures were further diluted 1:10 in Mueller Hinton broth. Using Denley's mutipoint inoculator, 10^4 cells were deposited on Mueller Hinton agar (Difco) containing range of 2 fold dilutions of test compounds. These plates were incubated for 24 hrs at 35° C. and MIC results recorded. MIC is defined as minimum drug concentration that inhibits test organisms. For determining MIC of test compounds against Streptococcus pneumoniae, Mueller Hinton agar containing 5% sheep blood was employed.

[2] = tested on: Streptococcus pneumoniae ATCC 49619; assay: In-vitro MIC test (agar dilution, 5% sheep blood), S. pneumoniae; format: cell-based; details: ATCC49619, Mueller Hinton agar containing 5% sheep blood, read-out: Minimum Inhibitory Concentrations (MIC) S. pneumoniae
Excerpt: as §1, §2, §3

[3] = Pharmacokinetic study, single oral dose in beagle dog; format: in vivo; details: serum, single oral dose 5 mg/kg p.o., Compound No. 4 and linezolid in 5% Tween, other compounds in cyclodextrin; for AUC(0-t): read-out: AUC (0-24 hr); for concentration at 12 hr: read-out: C-12 hr
Procedure: Oral (5 mg/kg) and intravenous (5 mg/kg bolus) pharmacokinetic studies were done in dog. Blood samples were collected at time points of 0, 0.08 (not for oral), 0.25, 0.50, 1.0, 1.5, 2.0, 3.0, 4.0, 5.0, 6.0, 8.0, 10.0, 12.0 and 24.0 hours. To facilitate i.v. dosing and collection of blood samples, the dogs were implanted with cannula in cephalic vein. Serum obtained from blood samples was used for HPLC-based analysis.
Serum samples were extracted by solid phase extraction technique using Water's OASIS HLB cartridges. An HPLC-Diode array detection system was used for analysis. Prepared samples were chromatographed on a YMC-AM reversed phase column (150×4.6 mm ID; 5 μm) using an isocratic mobile phase acetate buffer (50 mmol ammonium acetate pH 6.6) acetonitrile, 66:34% v/v (for a representative compound of the invention, 68:32% v/v for compound Nos. 30, 3, 7 and 11 of U.S. Pat. No. 5,668,286, and 75:25% v/v for linezolid) at a flow rate of 1 ml/min, measured at λmax 254 nm. Independently prepared analytical standards and quality control samples were analyzed with each set of unknown samples.
The pharmacokinetics of a representative compound of the invention following single oral dose administration of the compound in beagle dog is shown in Table 2.

[4] = Myelosuppressive potential: spleen and thymus relative weights, 14-day oral dosing; format: in vivo, Wistar rats
Excerpt: Compound No.30 of U.S. Pat. […] Vehicle treated controls were maintained using identical experimental conditions. The treated as well as control rats were sacrificed 24 hr after the last dose. One parameter measured was the spleen to body weight ratio and thymus to body weight ratio in treated versus control animals. The spleen and thymus were trimmed free of fat and other contiguous organs/tissues and were weighed in an analytical balance (Sartorious BP 210). The spleen to terminal body weight ratio and the thymus to terminal body weights ratio was calculated to provide the respective relative weights. The ratio value of the respective relative weight of a treated animal versus the relative weight of a control animal is provided in Table 4. The myelosuppressive potential of a compound is inversely proportional to the ratio value. […] Values in each of the first two columns above represent ratio of relative weight (calculated organ to body weight ratio) of spleen or thymus in drug treated animals v/s control animals. […] The “[…]” column provides ratio of percentage reticulocytes in treated v/s percentage reticulocytes in control rats.

[5] = Wistar rats, oral, 14 consecutive days, 50 mg/kg per day (LNZ 2×25 mg/kg per day), ratio less than 0.75 indicates myelosuppressive potential

Row | MIC [1] | MIC [2] | half-life [3] | AUC(0-t) [3] | Cmax [3] | concentration at 12 hr [3] | myelosuppressive potential (in words) ([4]; rat, in vivo) | Structure (SMILES) | Relative Weights Ratio Spleen (spleen weight/body weight of treated animal versus control animal) [4, 5] | Relative Weights Ratio Thymus (thymus weight/body weight of treated animal versus control animal) [4, 5]
1 | 2 µg/mL (≈ 5.34 µM) | 1 µg/mL (≈ 2.67 µM) | 10.8 ± 2.45 h | 71560 ± 250 ng·h/mL | 5660 ± 1490 ng/mL | 2840 ± 170 ng/mL | no or lower myelosuppressive potential | CC(=O)NC[C@H]1CN(c2ccc(N3CCC(CC#N)CC3)c(F)c2)C(=O)O1 [Compound 4, (S)-N-{3-[4-(4-cyanomethyl-piperidin-1-yl)-3-fluoro-phenyl]-2-oxo-oxazolidin-5-ylmethyl}-acetamide] |  | 
2 | 2 µg/mL (≈ 5.93 µM) | 0.5 µg/mL (≈ 1.48 µM) | 2.42 ± 0.17 h | 22800 ± 2170 ng·h/mL | 5700 ± 690 ng/mL | 0 ng/mL |  | CC(=O)NC[C@H]1CN(c2ccc(N3CCOCC3)c(F)c2)C(=O)O1 [Linezolid] | 0.46 | 0.46

Reference: patent US20040235900A1, “Antimicrobial oxazolifinones with improved pharmacokinetic profile and safety advantages” (priority 2002, published 2004)
